These results are taken from patent US10995091B2 (Proximagen, LLC, priority 2010, dated 2021).

Assay [1] concerns the target T1, Human CXCR4 transfected HEK293 cells (Homo sapiens, UniProt P61073).
T1 construct: expressed in transfected cells; host or cells: HEK293
Put plainly: CXCR4 functional calcium assay (calcium flux FLIPR, antagonism of SDF1 response). In kind it is cell-based. Particulars: CXCR4 functional activity, antagonism of SDF1 (EC50 concentration), read-out: CXCR4 fKi. The method, boiled down: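 Dose-dependent antagonism of the SDF1 response was read by FLIPR as Fluo-4 calcium signal (2 μM dye) in CXCR4-expressing human HEK293 cells, in HBSS with probenecid, BSA and HEPES at pH 7.4 and 37° C. Test compound was given before an EC50-level SDF1 challenge. Curves were then fitted.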

Assay [2] deals with HIV-1IIIB (CXCR4-tropic) virus. Kind of assay: CXCR4-tropic HIV-1 attachment assay in MAGI-CCR5 cells (β-galactosidase reporter). Format: cell-based. Conditions: Human immunodeficiency virus 1, MAGI-CCR5, read-out: IC50, inhibition of attachment of CXCR4-tropic HIV-1. As for the experimental part: Example 30 was tested in an HIV attachment assay, which detects compounds that block HIV-1IIIB (CXCR4-tropic) virus attachment to cells.
The CXCR4-tropic HIV-1 attachment assay uses MAGI-CCR5 cells that naturally express CXCR4 which were engineered to express high levels of CD4 and CCR5 and to contain one copy of the HIV-1 LTR promoter driving expression of the β-galactosidase gene upon HIV-1 Tat transactivation. Cells are incubated with Example 30 and the CXCR4-tropic virus HIV-1IIIB for 3 hours before washing to remove drug and unbound virus. Fresh media is added and the plates are incubated for 48 hours after which antiviral efficacy is measured as the inhibition of β-galactosidase reporter expression and cytotoxicity is monitored by MTS staining.

The next assay has as its system HIV-1IIIB (CXCR4-tropic). Put plainly: HIV anti-viral assay in MAGI-CCR5 cells (β-galactosidase reporter). In kind it is cell-based. Conditions: Human immunodeficiency virus 1, 48 hours with compound and virus, read-out: IC50, HIV-1 antiviral activity. As for the experimental part: Example 30 was also tested in an HIV antiviral assay that detects compounds that block HIV-1IIIB (CXCR4-tropic) replication via targets in the viral life cycle. The anti-viral assay uses MAGI-CCR5 cells that naturally express CXCR4 which were engineered to express high levels of CD4 and CCR5 and to contain one copy of the HIV-1 LTR promoter driving expression of the β-galactosidase gene upon HIV 1 Tat transactivation. Cells are incubated with Example 30 and the CXCR4-tropic virus HIV-1IIIB for 48 hours after which antiviral efficacy is measured as the inhibition of β-galactosidase reporter expression and cytotoxicity is monitored by MTS staining.

Assay [3] has as its system circulating white blood cells (WBC). Kind of assay: In vivo mobilization of white blood cells (WBC count in peripheral blood). Particulars: C57BL/6 mice. How it is done: (§1) The study investigated the ability of Example 30 alone and in combination with G-CSF to induce in vivo mobilization of white blood cells in C57BL/6 mice, as well as hematopoietic progenitors from bone marrow to peripheral blood as assessed by the evaluation of the frequency of colony forming cell colonies (CFC). Peripheral blood samples from each test group were collected 1 hour post injection. The white blood cell count (WBC) was determined from the peripheral blood collected for each individual mouse. Clonogenic progenitors of the multipotential (CFU-GEMM) lineages were assessed. Peripheral blood cells were added to MethoCult® 3434 in triplicate cultures for plating (0.5-3×10^5 cells/dish). Cultures were incubated for 8 days at 37° C., 5% CO2 in humidified incubators. CFU-GEMM colony number was enumerated microscopically using an inverted microscope from appropriately plated culture dishes.

Assay [4] deals with multipotential mixed hematopoietic progenitors (CFU-GEMM). Put plainly: In vivo mobilization of hematopoietic progenitors, colony forming cell assay (CFU-GEMM) from peripheral blood. Conditions: C57BL/6 mice, one hour after treatment, compared to G-CSF treatment alone. How it is done:
as §1

The test system of assay [5] is haematopoietic stem cells. Conditions: donors or patients; background statement; cited from earlier work.

T1 sequence (P61073 whole entry): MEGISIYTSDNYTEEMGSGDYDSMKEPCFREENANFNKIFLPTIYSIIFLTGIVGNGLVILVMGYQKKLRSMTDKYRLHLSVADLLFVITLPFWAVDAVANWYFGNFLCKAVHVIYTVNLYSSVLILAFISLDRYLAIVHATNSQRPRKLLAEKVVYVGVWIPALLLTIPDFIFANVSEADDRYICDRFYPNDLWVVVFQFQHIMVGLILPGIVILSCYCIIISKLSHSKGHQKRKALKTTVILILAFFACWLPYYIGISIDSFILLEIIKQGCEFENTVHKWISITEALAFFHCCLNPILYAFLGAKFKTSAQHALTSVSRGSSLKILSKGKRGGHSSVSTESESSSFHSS

For the compound `CC(C)N1CCC(N2CCCN(c3cccc(C(=O)Nc4ccncc4)n3)CC2)CC1` [Example 30, 6-{4-[1-(Propan-2-yl)piperidin-4-yl]-1,4-diazepan-1-yl}-N-(pyridin-4-yl)pyridine-2-carboxamide], in assay [1], the Ki was under 20 nM. In addition, the IC50 was found to be 40 nM in assay [2] and 30 nM with HIV-1IIIB (CXCR4-tropic). Further, in assay [3] (1 hour after treatment, compared to vehicle control group), the “circulating white blood cells (WBC)” value is listed as “significant increase”. Also, the “circulating white blood cells (WBC), in combination with G-CSF” value in assay [3] (after 1 hour, in combination with G-CSF, compared to G-CSF alone) was “significant increase”. The “multipotential mixed hematopoietic progenitors (CFU-GEMM/ml), in combination with G-CSF” value in assay [4] is “significant increase”.
Consider `c1cc(CN2CCCNCCNCCCNCC2)ccc1CN1CCCNCCNCCCNCC1` [Mozobil], for which the “success rate of stem cell mobilisation (sufficient yield)” value in assay [5] was about 90%.
Consider `O=C(Nc1ccncc1)c1cccc(N2CCCN(C3CCN(Cc4ccccc4Cl)CC3)CC2)n1` [Example 54, 6-(4-{1-[(2-Chlorophenyl)methyl]piperidin-4-yl}-1,4-diazepan-1-yl)-N-(pyridine-4-yl)pyridine-2-carboxamide], for which, in assay [1], the Ki is under 20 nM.
The same measure, in the same setting: in the case of `O=C(NCC1CC1)c1cccc(N2CCCN(C3CCN(Cc4ccc(F)cc4)CC3)CC2)n1` [Example 130, N-(Cyclopropylmethyl)-6-(4-{1-[(4-fluorophenyl)methyl]piperidin-4-yl}-1,4-diazepan-1-yl)pyridine-2-carboxamide] it was 100 to 500 nM; in that of `CC(C)N1CCC(N2CCCN(c3cccc(C(=O)NCC(F)F)n3)CC2)CC1` [Example 9, N-(2,2-Difluoroethyl)-6-{4-[1-(propan-2-yl)piperidin-4-yl]-1,4-diazepan-1-yl}pyridine-2-carboxamide], 100 to 500 nM; in that of `CCc1[nH]c(-c2cccc(N3CCCN(C4CCN(C(C)C)CC4)CC3)n2)nc1C` [Example 119, 1-[6-(5-Ethyl-4-methyl-1H-imidazol-2-yl)pyridine-2-yl]-4-[1-(propan-2-yl)piperidin-4-yl]-1,4-diazepane], under 20 nM.
For `CC(C)N1CCC(N2CCCN(c3cccc(C(=O)NCCC#N)n3)CC2)CC1` [Example 13, N-(2-Cyanoethyl)-6-{4-[1-(propan-2-yl)piperidin-4-yl]-1,4-diazepan-1-yl}pyridine-2-carboxamide], in assay [1], the Ki lay within 100 to 500 nM.
Turning to `CC(C)N1CCC(N2CCCN(c3cccc(-c4c[nH]c5ncccc45)n3)CC2)CC1` [Example 101, 1-[1-(Propan-2-yl)piperidin-4-yl]-4-(6-{1H-pyrrolo[2,3-b]pyridine-3-yl}pyridine-2-yl)-1,4-diazepane], the Ki in assay [1] is 100 to 500 nM.
